Experimental findings from patent publication US8338426B2, “Piperazinyl derivatives useful as modulators of the neuropeptide Y2 receptor” (Janssen Pharmaceutica NV, priority 2007, dated 2012) are described below.

Structures are written as SMILES. Numbering of substitutions follows the chain as printed.

For one assay, the target named is T1, human Y2 receptor (Homo sapiens, UniProt P49146).
T1 construct: KAN-Ts endogenously expressing Y2 receptors were used; endogenous in cells; host or cells: KAN-Ts cells
T1 sequence (P49146 1-381): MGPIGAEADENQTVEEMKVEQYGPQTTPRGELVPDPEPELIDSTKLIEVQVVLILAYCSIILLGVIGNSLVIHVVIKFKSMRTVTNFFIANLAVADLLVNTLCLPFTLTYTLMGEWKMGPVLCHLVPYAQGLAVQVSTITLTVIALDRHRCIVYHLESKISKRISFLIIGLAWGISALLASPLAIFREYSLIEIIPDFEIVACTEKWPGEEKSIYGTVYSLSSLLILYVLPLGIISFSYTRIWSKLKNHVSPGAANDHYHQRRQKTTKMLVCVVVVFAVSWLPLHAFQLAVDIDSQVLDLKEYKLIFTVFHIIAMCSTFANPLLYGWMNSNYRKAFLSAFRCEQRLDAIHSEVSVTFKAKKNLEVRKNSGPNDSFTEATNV
The experiment in a line: Neuropeptide Y2 radioligand binding assay, [125I]PYY, KAN-Ts cells. Conditions: KANT-S cells, mean ± S.E.M., read-out: hY2 pKi (converted). The protocol: (§1) Radioligand binding assays for the human and rat/mouse Y2 receptor were performed as described in Bonaventure, P., D. Nepomuceno, C. Mazur, B. Lord, D. A. Rudolph, J. A. Jablonowski, N. I. Carruthers and T. W. Lovenberg, J Pharmacol Exp Ther. 2004, 308, 1130.
(§2) KAN-Ts endogenously expressing Y2 receptors were used, for the rat and mouse Y2 receptor, membranes from rat or mouse hippocampus were prepared. Membranes were incubated with [^125I]PYY (80 pM) in the presence or absence of test compound for 1 h at rt. The reaction was stopped by filtration through GF/C filter plates pre-soaked in 0.3% polyethylenimine and subsequently washed with Tris-HCl, 50 mM, 5 mM EDTA buffer. Plates were dried for 1 h in a 55° C. oven, scintillation fluid was added and the radioactivity was counted in a Packard TopCount. Specific binding to the NPY receptor subtypes was determined by radioactivity that was bound in the presence of 1 μM NPY.
(§3) Apparent Ki values were calculated as K=IC50/(1+C/KD), where C is concentration of the radioligand and pKi=−log Ki. Data presented below are expressed as mean±S.E.M.

The target in another assay is T2, rat Y2 receptor (Rattus norvegicus, UniProt Q9ERC0).
T2 construct: membranes from rat or mouse hippocampus were prepared; from tissue; host or cells: rat hippocampus membranes
T2 sequence (Q9ERC0 1-381): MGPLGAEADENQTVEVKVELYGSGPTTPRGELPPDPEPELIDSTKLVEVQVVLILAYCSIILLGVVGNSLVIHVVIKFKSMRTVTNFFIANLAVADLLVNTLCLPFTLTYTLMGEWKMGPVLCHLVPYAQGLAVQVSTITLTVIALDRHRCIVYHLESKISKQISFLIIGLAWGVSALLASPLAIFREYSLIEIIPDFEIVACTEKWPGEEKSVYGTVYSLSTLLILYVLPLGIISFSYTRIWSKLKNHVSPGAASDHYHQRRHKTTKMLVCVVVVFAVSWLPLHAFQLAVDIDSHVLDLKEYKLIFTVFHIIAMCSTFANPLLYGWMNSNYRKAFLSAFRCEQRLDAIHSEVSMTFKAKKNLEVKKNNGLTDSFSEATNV
The experiment in a line: Neuropeptide Y2 radioligand binding assay, [125I]PYY, rat hippocampus membranes. Conditions: read-out: rY2 pKi (converted). The protocol: as §1, §2, §3

The target of another assay is T3, hY2 (Homo sapiens, UniProt P49146).
T3 construct: KAN-Ts endogenously expressing Y2 receptors were used; endogenous in cells; host or cells: KAN-Ts cells stably expressing chimeric G proteins
T3 sequence (P49146 1-381): T1 sequence (P49146 1-381)
The experiment in a line: Ca2+ mobilization assay (FLIPR) in KAN-Ts cells. Conditions: KANT-S cells, inhibition of PYY stimulated Ca2+ increase, read-out: hY2 pKB (converted). The format is cell-based. The protocol: The assay was performed using the fluorimetric imaging plate reader (FLIPR) format as described in Dautzenberg, F. M., Biochemical Pharmacology 2005, 69, 1493.
KAN-Ts cells stably expressing chimeric G proteins were seeded at a density of 100,000 cells into poly-d-lysine coated 384-well blackwall, clear-bottom microtiter plates (Corning, N.Y.). One day later, the medium was removed and 50 μl loading medium DMEM high glucose, without serum, supplemented with 10 mM HEPES-acid, 0.1% BSA, 5 mM probenecid and 2 μM Fluo-3AM was added. Cells were loaded for 1 h at 37° C., washed twice with 50 μl assay buffer (5 mM HEPES-acid, 140 mM NaCl, 1 mM MgCl2, 5 mM KCl, 10 mM glucose) and then 30 μl assay buffer was added. Cells were further pre-incubated at room temperature before adding agonists or agonists plus antagonists in 20 μl assay buffer and then measured on a T-channel fluorometric imaging plate reader (FLIPR, Molecular Devices, Sunnyvale, Calif.).
Antagonistic potency values were converted to apparent pKB values using a modified Cheng-Prusoff correction. Apparent pKB=−log IC50/1+[conc agonist/EC50]. Data below are expressed as mean±S.E.M.
The in vitro antagonistic properties of the compound of formula (A) were confirmed using Ca^2+ measurement.

Another assay has as its target MTP (Homo sapiens, UniProt P55157). The experiment in a line: MTP assay (triglyceride transfer between vesicles). The format is biochemical. The settings on record: read-out: MTP pIC50 (converted). The protocol: MTP activity was measured using an assay similar to one described by J. R. Wetterau and D. B. Zilversmit in Chemistry and Physics of Lipids (1985) 38, 205-222.
In order to prepare the donor and acceptor vesicles, the appropriate lipids in chloroform were put into a glass test tube and dried under a stream of nitrogen. A buffer containing 15 mM Tris-HCl (pH 7.5), 1 mM ethylenediamine tetra-acetic acid, 40 mM NaCl, 0.02% NaN3 (assay buffer) was added to the dried lipid. The mixture was vortexed briefly and the lipids were then allowed to hydrate for 20 minutes on ice. Vesicles were then prepared by bath sonication (using a Branson 2200 device) at room temperature for at most 15 minutes. Butylated hydroxytoluene was included in all vesicle preparations at a concentration of 0.1%. The lipid transfer assay mixture contained donor vesicles (40 nmole phosphatidylcholine, 7.5 mole % cardiolipin and 0.25 mole % glycerol tri[1-^14C]-oleate), acceptor vesicles (240 nmol phosphatidylcholine) and 5 mg bovine serum albumin in a total volume of 675 μl in a 1.5 ml microcentrifuge tube. Test compound was added dissolved in dimethylsulfoxide (0.13% final concentration). After 5 minutes of pre-incubation at 37° C., the reaction was started by the addition of MTP in 100 μl of a dialysis buffer. The reaction was stopped by the addition of 400 μl […] (DEAE)-52 cellulose (Sephadex) pre-equilibrated in 15 mM Tris-HCl (pH 7.5), 1 mM ethylenediamine tetra-acetic acid and 0.02% NaN3 (1:1 volume/volume). The mixture was agitated for 4 minutes and centrifuged for 2 minutes at maximum speed in an Eppendorf centrifuge (4° C.) to pellet the DEAE-52-bound donor vesicles. An aliquot of the supernatant containing the acceptor liposomes was counted and the [^14C]-counts were used to calculate the percent triglyceride transfer from donor to acceptor vesicles.
Representative compounds of the present invention were measured for binding against the MTP receptor, as described above, with results as listed in Table 2 below.

A further assay addresses T4, mouse Y2 receptor (Mus musculus, UniProt P97295).
T4 construct: membranes from rat or mouse hippocampus were prepared; from tissue; host or cells: mouse hippocampus membranes
T4 sequence (P97295 1-381): T2 sequence (Q9ERC0 1-381) with L4V, L20P, S23P, P25H, V52I, Q163R, V175I, K247R, T266M, L371P
The experiment in a line: Neuropeptide Y2 radioligand binding assay, [125I]PYY, mouse hippocampus membranes. Conditions: read-out: mY2 pKi (converted). The protocol: as §1, §2, §3

Assay [1] addresses T5, Y2 receptor binding sites in rat hippocampus (Rattus norvegicus, UniProt Q9ERC0).
T5 construct: from tissue; host or cells: rat brain sections (hippocampus) after in vivo dosing
T5 sequence (Q9ERC0 1-381): T2 sequence (Q9ERC0 1-381)
The experiment in a line: Ex vivo Y2 receptor occupancy in rats (autoradiography). The settings on record: SC administration (10 mg/kg). The protocol: The pharmacokinetic, blood-brain barrier penetration and ex vivo receptor occupancy studies were performed as described in Bonaventure, P., D. Nepomuceno, C. Mazur, B. Lord, D. A. Rudolph, J. A. Jablonowski, N. I. Carruthers and T. W. Lovenberg, J Pharmacol Exp Ther. 2004, 308, 1130.
The compound of formula (A) was formulated in 20% hydroxypropylbetacyclodextrine. Subcutaneous (SC), oral (PO) or intravenous (IV) dosing was followed by blood sampling via cardiac puncture over a time course. Blood samples consisted of 250 μl samples taken from the heart using a 23-gauge needle into 1.5 ml micro-centrifuge tubes. Brains were removed from the animals and bisected down the midsagittal plane. One hemisphere was frozen on dry ice for ex vivo receptor binding autoradiography and the other was homogenized for LC/MS-MS analysis.
Ex vivo receptor binding autoradiography was performed on brain sections. Twenty-micron-thick coronal sections at the level of the […] regions were collected and incubated for 10 min with 100 pM [^125I]PYY in Krebs-Ringer phosphate buffer (KRP) at pH 7.4 supplemented with 0.1% BSA, 0.05% bacitracin, and 1 μM BIBP-3226 for Y1 receptor occlusion. The sections were not washed prior to incubation and were incubated 10 minutes to avoid dissociation. Nonspecific binding was determined using adjacent sections incubated in the presence of 1 μM unlabelled hNPY. At the end of the incubation, sections were washed 4 times (4 minutes each) in ice cold buffer, dipped in deionized water and rapidly dried under a stream of cold air. Sections were exposed to a Fujifilm Imaging Plate (BAS-MS2025) for 12 hours. The Phosphor Imaging Plate was scanned using a Fuji Bio-Imaging Analyzer System (BAS-5000). The digitized computer images generated by the scanner were visualized and quantified using ImageGauge V3.12 software (Fujifilm).

Sequence of MTP (P55157 19-894, species assumed): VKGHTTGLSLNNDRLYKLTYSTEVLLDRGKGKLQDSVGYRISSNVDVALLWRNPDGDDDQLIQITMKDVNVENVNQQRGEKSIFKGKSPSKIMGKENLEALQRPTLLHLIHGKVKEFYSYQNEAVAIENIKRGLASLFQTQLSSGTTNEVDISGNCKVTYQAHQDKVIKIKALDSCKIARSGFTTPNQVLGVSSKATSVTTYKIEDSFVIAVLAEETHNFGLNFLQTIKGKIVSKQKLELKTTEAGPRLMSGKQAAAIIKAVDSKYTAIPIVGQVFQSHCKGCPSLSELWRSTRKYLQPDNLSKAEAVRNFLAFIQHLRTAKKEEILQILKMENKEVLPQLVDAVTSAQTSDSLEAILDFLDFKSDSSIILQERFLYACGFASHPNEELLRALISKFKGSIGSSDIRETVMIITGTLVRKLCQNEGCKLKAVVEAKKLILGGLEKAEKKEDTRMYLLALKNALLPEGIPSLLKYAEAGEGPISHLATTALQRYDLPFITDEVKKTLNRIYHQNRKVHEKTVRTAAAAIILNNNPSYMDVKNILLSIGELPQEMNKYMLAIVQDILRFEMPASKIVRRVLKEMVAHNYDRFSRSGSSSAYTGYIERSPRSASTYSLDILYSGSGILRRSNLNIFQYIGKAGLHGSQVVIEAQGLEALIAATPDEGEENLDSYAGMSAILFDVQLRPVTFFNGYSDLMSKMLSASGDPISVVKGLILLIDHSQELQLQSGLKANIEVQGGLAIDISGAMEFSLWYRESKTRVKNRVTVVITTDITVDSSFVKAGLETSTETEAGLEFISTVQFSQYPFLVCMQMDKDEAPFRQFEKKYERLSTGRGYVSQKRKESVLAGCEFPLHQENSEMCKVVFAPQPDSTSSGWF
Sequence of MTP (P07237 18-508 partner, species assumed): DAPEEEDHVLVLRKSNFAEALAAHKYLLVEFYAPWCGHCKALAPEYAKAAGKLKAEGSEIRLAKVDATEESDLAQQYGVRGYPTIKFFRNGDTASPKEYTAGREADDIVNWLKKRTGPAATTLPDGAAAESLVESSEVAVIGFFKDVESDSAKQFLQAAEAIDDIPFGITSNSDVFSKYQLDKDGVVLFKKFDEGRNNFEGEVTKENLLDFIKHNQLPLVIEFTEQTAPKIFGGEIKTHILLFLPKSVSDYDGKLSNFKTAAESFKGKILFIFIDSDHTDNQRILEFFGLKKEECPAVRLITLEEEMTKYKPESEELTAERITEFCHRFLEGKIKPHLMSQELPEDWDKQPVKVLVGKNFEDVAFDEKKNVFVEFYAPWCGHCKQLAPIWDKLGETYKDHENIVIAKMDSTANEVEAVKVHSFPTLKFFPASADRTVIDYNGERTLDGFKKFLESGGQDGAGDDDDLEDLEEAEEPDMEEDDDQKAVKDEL

`CCN(CC)C(=O)C(c1ccccc1)N1CCN(c2ccc(NC(=O)c3ccccc3-c3cccnc3)cc2F)CC1` (single isomer, unassigned; (+)) [(+)-Cmpd (A), N-{4-[4-(Diethylcarbamoyl-phenyl-methyl)-piperazin-1-yl]-3-fluoro-phenyl}-2-pyridin-3-yl-benzamide]: the figures for the Ki on human Y2 receptor and on rat Y2 receptor were 0.00794 µM and 0.01 µM, respectively. Also, the Kb at hY2 was 0.000398 µM. In addition, on MTP, the IC50 was 0.316 µM.

Consider `CCN(CC)C(=O)C(c1ccccc1)N1CCN(c2ccc(NC(=O)c3ccccc3-c3cccnc3)cc2F)CC1` (single isomer, unassigned; (-)) [(−)-Cmpd (A), (−)-N-{4-[4-(Diethylcarbamoyl-phenyl-methyl)-piperazin-1-yl]-3-fluoro-phenyl}-2-pyridin-3-yl-benzamide], for which the Ki at human Y2 receptor is 0.00316 µM; at rat Y2 receptor, 0.012 µM; on mouse Y2 receptor, 0.00794 µM. Further, the Kb at hY2 was 0.000794 µM. Also, the IC50 on MTP is 6.31 µM.

For the molecule `CCNC(=O)C(c1ccccc1)N1CCN(c2ccc(NC(=O)c3ccccc3-c3cccnc3)cc2F)CC1` (single isomer, unassigned; (-)) [(−)-Cmpd (B), N-{4-[4-(ethylcarbamoyl-phenyl-methyl)-piperazin-1-yl]-3-fluoro-phenyl}-2-pyridin-3-yl-benzamide], the Ki at human Y2 receptor is 0.0398 µM. Also, the IC50 at MTP is 0.398 µM.

Turning to `CCNC(=O)C(c1ccccc1)N1CCN(c2ccc(NC(=O)c3ccccc3-c3cccnc3)cc2F)CC1` (single isomer, unassigned; (+)) [(+)-Cmpd (B), N-{4-[4-(ethylcarbamoyl-phenyl-methyl)-piperazin-1-yl]-3-fluoro-phenyl}-2-pyridin-3-yl-benzamide], the Ki on human Y2 receptor was 0.229 µM. The IC50 on MTP is 3.98 µM.

Consider `CCNC(=O)C(c1ccccc1)N1CCN(c2ccc(NC(=O)c3ccccc3-c3cccnc3)cc2F)CC1` (racemic) [Cmpd (B), N-{4-[4-(ethylcarbamoyl-phenyl-methyl)-piperazin-1-yl]-3-fluorophenyl}-2-pyridin-3-yl-benzamide], for which, at human Y2 receptor, the Ki is 0.0324 µM. Further, on hY2, the Kb is 0.0501 µM. In addition, the IC50 on MTP is 0.251 µM. In addition, the receptor occupancy at 10 mg/kg in assay [1] (rat, read-out: Y2 receptor occupancy in rat brain) is about 40%.

Take `CCN(CC)C(=O)C(c1ccccc1)N1CCN(c2ccc(NC(=O)c3ccccc3-c3ccccc3)cc2F)CC1` (stereo not shown) [Cmpd (C), Biphenyl-2-carboxylic acid {4-[4-(diethylcarbamoyl-phenyl-methyl)-piperazin-1-yl]-3-fluoro-phenyl}-amide]: the Ki is 0.00759 µM on human Y2 receptor and 0.0251 µM at rat Y2 receptor. Moreover, the Kb at hY2 was 0.00631 µM. Moreover, on MTP, the IC50 was 0.0501 µM. In assay [1], the “Y2 receptor occupancy in rat brain” value is “did not show any significant level of Y2 receptor occupancy”.
